Reference: ChEMBL document CHEMBL1201862, “PubChem BioAssay data set” (2004)
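Briefly, cells in 96-well plates were exposed to five compound concentrations for 48 h, and endpoints were estimated by linear interpolation. Here, GI50 denotes the concentration required for 50% inhibition of growth.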 Active and inactive are the calls of the source. Rule as the data show it: active = GI50 up to about 1.1 µM and inactive = higher.

What was measured:
Experiment in all cases: growth of human tumour cells (NCI), 48 h
MDA-MB-435 = test system: MDA-MB-435
BT-549 = test system: BT-549
NCI-H460 = test system: NCI-H460
COLO 205 = test system: COLO 205
HT-29 = test system: HT-29
SNB-75 = test system: SNB-75
SF-268 = test system: SF-268
K562 = test system: K562
A498 = test system: A498
Hs-578T = test system: Hs-578T
IGROV-1 = test system: IGROV-1
SK-MEL-28 = test system: SK-MEL-28
UO-31 = test system: UO-31
OVCAR-5 = test system: OVCAR-5
SK-OV-3 = test system: SK-OV-3
HCT-116 = test system: HCT-116
U-251 = test system: U-251
OVCAR-3 = test system: OVCAR-3
OVCAR-8 = test system: OVCAR-8
T47D = test system: T47D
Malme-3M = test system: Malme-3M
SF-539 = test system: SF-539
HCC 2998 = test system: HCC 2998
UACC-62 = test system: UACC-62
RXF 393 = test system: RXF 393
NCI-H226 = test system: NCI-H226
HOP-62 = test system: HOP-62
HCT-15 = test system: HCT-15
CCRF-CEM = test system: CCRF-CEM
EKVX = test system: EKVX
786-0 = test system: 786-0
PC-3 = test system: PC-3
SN12C = test system: SN12C
LOX IMVI = test system: LOX IMVI
SW-620 = test system: SW-620
NCI-H522 = test system: NCI-H522
ACHN = test system: ACHN
HL-60 = test system: HL-60
SF-295 = test system: SF-295
KM12 = test system: KM12
RPMI-8226 = test system: RPMI-8226
NCI-H23 = test system: NCI-H23
TK-10 = test system: TK-10
NCI/ADR-RES = test system: NCI/ADR-RES
OVCAR-4 = test system: OVCAR-4
CAKI-1 = test system: CAKI-1
UACC-257 = test system: UACC-257
SK-MEL-5 = test system: SK-MEL-5
SK-MEL-2 = test system: SK-MEL-2
MDA-MB-231 = test system: MDA-MB-231
MDA-N = test system: MDA-N
SR = test system: SR
MCF7 = test system: MCF7
HOP-92 = test system: HOP-92
M14 = test system: M14
MOLT-4 = test system: MOLT-4
DU-145 = test system: DU-145
SNB-19 = test system: SNB-19
A549 = test system: A549

C[C@@]12C[C@@H](c3ccccc3O1)N1CCCCSC1=N2
GI50 (MDA-MB-435): > 100 µM (inactive)
GI50 (BT-549): > 100 µM (inactive)
GI50 (NCI-H460): > 100 µM (inactive)
GI50 (COLO 205): > 100 µM (inactive)
GI50 (HT-29): > 100 µM (inactive)
GI50 (SNB-75): > 100 µM (inactive)
GI50 (SF-268): > 100 µM (inactive)
GI50 (K562): > 100 µM (inactive)
GI50 (A498): > 100 µM (inactive)
GI50 (Hs-578T): > 100 µM (inactive)
GI50 (IGROV-1): > 100 µM (inactive)
GI50 (SK-MEL-28): > 100 µM (inactive)
GI50 (UO-31): > 100 µM (inactive)
GI50 (OVCAR-5): > 100 µM (inactive)
GI50 (SK-OV-3): > 100 µM (inactive)
GI50 (HCT-116): > 100 µM (inactive)
GI50 (U-251): > 100 µM (inactive)
GI50 (OVCAR-3): > 100 µM (inactive)
GI50 (OVCAR-8): > 100 µM (inactive)
GI50 (T47D): > 100 µM (inactive)
GI50 (Malme-3M): > 100 µM (inactive)
GI50 (SF-539): > 100 µM (inactive)
GI50 (HCC 2998): > 100 µM (inactive)
GI50 (UACC-62): > 100 µM (inactive)
GI50 (RXF 393): > 100 µM (inactive)
GI50 (NCI-H226): > 100 µM (inactive)
GI50 (HOP-62): > 100 µM (inactive)
GI50 (HCT-15): > 100 µM
GI50 (CCRF-CEM): > 100 µM (inactive)
GI50 (EKVX): > 100 µM (inactive)
GI50 (786-0): > 100 µM (inactive)
GI50 (PC-3): > 100 µM (inactive)
GI50 (SN12C): > 100 µM (inactive)
GI50 (LOX IMVI): > 100 µM (inactive)
GI50 (SW-620): > 100 µM (inactive)
GI50 (NCI-H522): > 100 µM (inactive)
GI50 (ACHN): > 100 µM (inactive)
GI50 (HL-60): 3.46 µM (inactive)
GI50 (SF-295): > 100 µM (inactive)
GI50 (KM12): > 100 µM (inactive)
GI50 (RPMI-8226): > 100 µM (inactive)
GI50 (NCI-H23): > 100 µM (inactive)
GI50 (TK-10): > 100 µM (inactive)
GI50 (NCI/ADR-RES): > 100 µM (inactive)
GI50 (OVCAR-4): > 100 µM (inactive)
GI50 (CAKI-1): > 100 µM (inactive)
GI50 (UACC-257): > 100 µM (inactive)
GI50 (SK-MEL-5): > 100 µM (inactive)
GI50 (SK-MEL-2): > 100 µM (inactive)
GI50 (MDA-MB-231): > 100 µM (inactive)
GI50 (MDA-N): > 100 µM (inactive)
GI50 (SR): > 100 µM (inactive)
GI50 (MCF7): > 100 µM (inactive)
GI50 (HOP-92): > 100 µM (inactive)
GI50 (M14): > 100 µM (inactive)
GI50 (MOLT-4): > 100 µM (inactive)
GI50 (DU-145): > 100 µM (inactive)
GI50 (SNB-19): > 100 µM (inactive)

CC(C)C1=C2CCC3(C)C(CCC4C5C6OCC5(CCC6(C)C)CCC43C)C2(C)CC1 (stereo not given)
GI50 (MDA-MB-435): 17.4 µM (inactive)
GI50 (BT-549): 22.4 µM (inactive)
GI50 (NCI-H460): 14 µM (inactive)
GI50 (COLO 205): 16.7 µM (inactive)
GI50 (HT-29): 17.7 µM (inactive)
GI50 (SF-268): 28.8 µM (inactive)
GI50 (A498): 20.4 µM (inactive)
GI50 (Hs-578T): 22.8 µM (inactive)
GI50 (IGROV-1): 13.1 µM (inactive)
GI50 (SK-MEL-28): 17.8 µM (inactive)
GI50 (UO-31): 18.1 µM (inactive)
GI50 (OVCAR-5): 33 µM (inactive)
GI50 (SK-OV-3): 58.1 µM (inactive)
GI50 (HCT-116): 18.8 µM (inactive)
GI50 (U-251): 19.1 µM (inactive)
GI50 (OVCAR-3): 21.3 µM (inactive)
GI50 (OVCAR-8): 17.7 µM (inactive)
GI50 (T47D): 27 µM (inactive)
GI50 (Malme-3M): 20.8 µM (inactive)
GI50 (SF-539): 16.9 µM (inactive)
GI50 (HCC 2998): 18.8 µM (inactive)
GI50 (UACC-62): 17.7 µM (inactive)
GI50 (RXF 393): 20.6 µM (inactive)
GI50 (NCI-H226): 33.7 µM (inactive)
GI50 (HOP-62): 18.1 µM (inactive)
GI50 (HCT-15): 19.1 µM
GI50 (CCRF-CEM): 12.3 µM (inactive)
GI50 (A549): 17.3 µM (inactive)
GI50 (EKVX): 19.1 µM (inactive)
GI50 (786-0): 17.7 µM (inactive)
GI50 (PC-3): > 10 µM (inactive)
GI50 (SN12C): 15 µM (inactive)
GI50 (LOX IMVI): 14.4 µM (inactive)
GI50 (SW-620): 22.5 µM (inactive)
GI50 (NCI-H522): 18.8 µM (inactive)
GI50 (ACHN): 20 µM (inactive)
GI50 (HL-60): 8.81 µM (inactive)
GI50 (SF-295): 19.7 µM (inactive)
GI50 (KM12): 16.9 µM (inactive)
GI50 (RPMI-8226): 13.6 µM (inactive)
GI50 (NCI-H23): 21.3 µM (inactive)
GI50 (TK-10): 16.7 µM (inactive)
GI50 (NCI/ADR-RES): 18.9 µM (inactive)
GI50 (OVCAR-4): 25.3 µM (inactive)
GI50 (CAKI-1): 20 µM (inactive)
GI50 (UACC-257): 18.1 µM (inactive)
GI50 (SK-MEL-5): 21.8 µM (inactive)
GI50 (SK-MEL-2): 29.6 µM (inactive)
GI50 (MDA-MB-231): 20 µM (inactive)
GI50 (MDA-N): 13.7 µM (inactive)
GI50 (SR): 11.3 µM (inactive)
GI50 (MCF7): 23.4 µM (inactive)
GI50 (HOP-92): 18.6 µM (inactive)
GI50 (M14): 17.4 µM (inactive)
GI50 (MOLT-4): 16.3 µM (inactive)
GI50 (DU-145): 20.2 µM (inactive)
GI50 (SNB-19): 29.1 µM (inactive)
